ChEMBL document CHEMBL1156400, “Cedronolactone E, a novel C(19) quassinoid from Simaba cedron” (J Nat Prod, 2001)
≈ marks a conversion by molar mass, not a printed value.

System: P388
Assay: Cytotoxicity against mouse P388 cells
Type: functional, cell-based

SMILES: C[C@@H]1[C@@H]2[C@@H](O)C(=O)O[C@@H]3C[C@@]4(C)C(=C(O[C@@]5(C)CC(=O)O[C@@H]45)[C@@H]1O)[C@]23CO [CEDRONOLACTONE E]
- IC50: 51 µg/mL (≈ 134 µM)
